Columns and labels:
hERG potassium channel = target: T1, hERG potassium channel (Homo sapiens, UniProt Q12809); experiment: Inhibitory effect against hERG channel activity (manual patch clamp, HEK293 cells stably expressing hERG); type: cell-based; details: HEK293 cell line stably expressing hERG
T1 construct: expressed in transfected cells; host or cells: HEK293
Protocol: Example 131: Assay of Inhibitory Effect of Compound Against hERG Channel Activity
The HEK293 cell line stably expressed by the hERG potassium channel was adopted for detection using manual patch clamp. Firstly, the HEK293 cell line stably expressed by the hERG potassium channel was separated and laid on a cover glass before the patch clamp detection test, and the test detection was carried out after culture for 18 h. Then a capillary glass tube was drawn into a recording electrode, and the recording electrode was contacted onto the cells under an inverted microscope to form a whole-cell recording mode. After necessary compensation and recording of the membrane capacitance and series resistance, current recording was performed according to the set current stimulation protocol. After the hERG current stabilized, administration was started and the current detected in compound-free extracellular fluid for each cell served as its own control group, and multiple cells were repeatedly tested independently. The current acted for each drug concentration and the current of the blank control were standardized, then the inhibition rate corresponding to each drug concentration was calculated, and finally the half-inhibition concentration IC50 value of each compound was calculated.

HPK1 = HPK1 (Homo sapiens, UniProt Q92918); experiment: Inhibitory effect against enzyme activity of HPK1 (lantha Screen, PKC substrate); type: biochemical; details: class symbols defined as IC50 ranges, read-out: Inhibition rate (%)
Sequence of HPK1 (Q92918 whole entry): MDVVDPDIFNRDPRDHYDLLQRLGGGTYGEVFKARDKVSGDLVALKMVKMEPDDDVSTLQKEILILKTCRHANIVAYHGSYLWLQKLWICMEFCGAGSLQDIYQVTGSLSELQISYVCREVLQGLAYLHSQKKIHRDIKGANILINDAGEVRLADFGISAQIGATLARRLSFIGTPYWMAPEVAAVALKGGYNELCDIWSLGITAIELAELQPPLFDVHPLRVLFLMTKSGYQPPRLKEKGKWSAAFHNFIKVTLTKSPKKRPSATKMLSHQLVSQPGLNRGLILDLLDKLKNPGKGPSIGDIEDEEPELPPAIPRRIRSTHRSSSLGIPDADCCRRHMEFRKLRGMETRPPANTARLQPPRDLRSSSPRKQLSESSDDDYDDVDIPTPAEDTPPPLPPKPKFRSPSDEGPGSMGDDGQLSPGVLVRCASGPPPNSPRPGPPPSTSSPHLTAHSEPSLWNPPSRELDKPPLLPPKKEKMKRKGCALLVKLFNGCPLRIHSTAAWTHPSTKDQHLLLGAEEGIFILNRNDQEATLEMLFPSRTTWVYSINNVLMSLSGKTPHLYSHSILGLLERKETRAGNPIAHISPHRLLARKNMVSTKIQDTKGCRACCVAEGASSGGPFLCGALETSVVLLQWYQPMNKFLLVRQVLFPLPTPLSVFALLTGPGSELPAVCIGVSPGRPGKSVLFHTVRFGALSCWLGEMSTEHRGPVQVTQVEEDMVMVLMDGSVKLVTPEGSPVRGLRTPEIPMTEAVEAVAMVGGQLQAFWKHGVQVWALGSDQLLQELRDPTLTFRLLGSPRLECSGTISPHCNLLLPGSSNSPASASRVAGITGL
Protocol: Example 130: Assay of Inhibitory Effect of Compound Against Enzyme Activity of HPK1
The inhibitory effect of the compound against the enzyme activity of HPK1 was determined by using a lantha Screen method with PKC as a substrate. The process comprises the following specific steps: the HPK1 protein was incubated with the serially-diluted compound at 28° C. for 10 min followed by addition of fluoroescein-labeled PKC substrate and ATP to react for 90 min. After termination of the reaction, a Terbium-labeled antibody against phosphorylated PKC was added and incubated for 60 min. The energy transfer of Teribium and fluoroscein was monitored by detecting luminescence at 520 nm and 450 nm to quantify PKC as the level of phosphorylation of […]. Inhibition % and IC50 of the compound were calculated compared to the control group.

T1 sequence (Q12809 whole entry): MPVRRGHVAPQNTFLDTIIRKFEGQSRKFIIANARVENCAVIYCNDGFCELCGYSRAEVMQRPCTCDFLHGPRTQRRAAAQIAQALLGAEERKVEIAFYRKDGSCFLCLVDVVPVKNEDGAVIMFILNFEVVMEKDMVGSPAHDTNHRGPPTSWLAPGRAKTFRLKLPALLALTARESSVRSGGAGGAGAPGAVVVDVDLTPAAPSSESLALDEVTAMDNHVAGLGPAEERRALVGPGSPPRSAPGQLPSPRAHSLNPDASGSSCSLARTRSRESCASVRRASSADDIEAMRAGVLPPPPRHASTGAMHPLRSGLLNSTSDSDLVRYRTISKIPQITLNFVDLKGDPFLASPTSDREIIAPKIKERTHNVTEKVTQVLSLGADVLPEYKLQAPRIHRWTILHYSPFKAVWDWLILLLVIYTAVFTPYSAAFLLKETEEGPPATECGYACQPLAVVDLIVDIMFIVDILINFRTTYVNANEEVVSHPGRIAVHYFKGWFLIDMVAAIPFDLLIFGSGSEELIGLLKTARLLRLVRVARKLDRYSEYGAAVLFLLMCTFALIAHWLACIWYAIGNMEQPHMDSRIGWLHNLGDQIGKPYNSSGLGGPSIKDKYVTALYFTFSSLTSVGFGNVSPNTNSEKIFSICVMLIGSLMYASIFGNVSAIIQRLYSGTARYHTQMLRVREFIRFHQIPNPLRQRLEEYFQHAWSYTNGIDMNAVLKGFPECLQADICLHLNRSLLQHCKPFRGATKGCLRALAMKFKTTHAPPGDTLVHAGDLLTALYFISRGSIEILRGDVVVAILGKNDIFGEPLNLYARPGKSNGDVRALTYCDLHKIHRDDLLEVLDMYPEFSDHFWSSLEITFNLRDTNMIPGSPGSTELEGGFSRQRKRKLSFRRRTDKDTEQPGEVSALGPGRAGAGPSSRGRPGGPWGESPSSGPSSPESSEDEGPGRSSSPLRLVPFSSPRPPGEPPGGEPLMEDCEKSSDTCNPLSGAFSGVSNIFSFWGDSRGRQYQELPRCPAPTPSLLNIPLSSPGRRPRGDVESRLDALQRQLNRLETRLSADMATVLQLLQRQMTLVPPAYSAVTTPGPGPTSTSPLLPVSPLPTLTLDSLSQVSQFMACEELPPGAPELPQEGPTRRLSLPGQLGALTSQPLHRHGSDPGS

Compound	IC50 (HPK1) [nM]	IC50 (hERG potassium channel) [nM]
COc1cccc(F)c1-c1cc2c(-c3ccc4c(c3)OCC3CN(C)CCN43)n[nH]c2cc1C#N (stereo not shown) [Compound 6]	≤ 10	17800
COc1ccc(F)c(F)c1-c1cc2c(-c3ccc4c(c3)OCC3CN(C)CCN43)n[nH]c2cc1C#N (stereo not shown) [Compound 16]	≤ 10	23600
CN1CCN2c3ccc(-c4n[nH]c5cc(C#N)c(-c6c(F)cc(C(=O)N7CC(N(C)C)C7)cc6F)cc45)cc3OCC2C1 (stereo not shown) [Compound 35]	≤ 10	31800
Cc1n[nH]cc1-c1cc2c(-c3ccc4c(c3)OCC3CN(C)CCN43)n[nH]c2cn1 (stereo not shown) [Compound 72]	≤ 10	
COc1ccc(C#N)c(F)c1-c1cc2c(-c3ccc4c(c3)OCC3CN(C)CCN43)n[nH]c2cn1 (stereo not shown) [Compound 74]	10 to 100	
COc1c(F)ccc(F)c1-c1cc2c(-c3ccc4c(c3)OCC3CN(C)CCN43)n[nH]c2cn1 (stereo not shown) [Compound 75]	10 to 100	
CN1CCN2c3ccc(-c4n[nH]c5cnc(-c6ccc(C(=O)N7CC(N(C)C)C7)cc6)cc45)cc3OCC2C1 (stereo not shown) [Compound 76]	10 to 100	
CN1CCN2c3ccc(-c4n[nH]c5cnc(-c6cccn7ccnc67)cc45)cc3OCC2C1 (stereo not shown) [Compound 77]	≤ 10	
CN1CCN2c3ccc(-c4n[nH]c5cnc(-c6cnn7ccccc67)cc45)cc3OCC2C1 (stereo not shown) [Compound 78]	≤ 10	
COc1cccc(F)c1-c1ncc2[nH]nc(-c3ccc4c(c3)OCC3CN(C)CCN43)c2n1 (stereo not shown) [Compound 79]	10 to 100	
COc1cccc(F)c1-c1nc2c(-c3ccc4c(c3)OCC3CN(C)CCN43)n[nH]c2cc1C#N (stereo not shown) [Compound 82]	10 to 100	
COc1cccc(F)c1-c1ccc2[nH]nc(-c3ccc4c(c3)OCC3CN(C)CCN43)c2n1 (stereo not shown) [Compound 85]	10 to 100	
COc1cccc(F)c1-c1cc2c(-c3ccc4c(c3)OCC3CN(C)CCN43)c[nH]c2cc1C#N (stereo not shown) [Compound 91]	≤ 10	
CN1CCN2c3ccc(-c4cnc5[nH]cc(-c6ccc(C(=O)N7CC(N(C)C)C7)cc6)c5c4)cc3OCC2C1 (stereo not shown) [Compound 103]	≤ 10	
CN1CCN2c3ccc(-c4cnc5[nH]cc(-c6ccc(C(=O)N7CC(O)C7)cc6)c5c4)cc3OCC2C1 (stereo not shown) [Compound 104]	10 to 100	
CN(C)CCN(C)C(=O)c1ccc(-c2c[nH]c3ncc(-c4ccc5c(c4)OCC4CN(C)CCN54)cc23)cc1 (stereo not shown) [Compound 105]	≤ 10	
CN1CCN2c3ccc(-c4cnc5[nH]cc(-c6ccc(C(=O)N7CC8(COC8)C7)cc6)c5c4)cc3OCC2C1 (stereo not shown) [Compound 106]	≤ 10	
CN1CC(CN(C)C(=O)c2ccc(-c3c[nH]c4ncc(-c5ccc6c(c5)OCC5CN(C)CCN65)cc34)cc2)C1 (stereo not shown) [Compound 107]	≤ 10	
CN1CCN2c3ccc(-c4cnc5[nH]cc(-c6ccc(C(=O)C7CNC7)cc6)c5c4)cc3OCC2C1 (stereo not shown) [Compound 108]	10 to 100	

Compound	IC50 (HPK1) [nM]	IC50 (hERG potassium channel) [nM]
CN1CCN2c3ccc(-c4cnc5[nH]cc(-c6ccc(OC7CCNCC7)cc6)c5c4)cc3OCC2C1 (stereo not shown) [Compound 109]	≤ 10	
CN(C)CCCOc1ccc(-c2c[nH]c3ncc(-c4ccc5c(c4)OCC4CN(C)CCN54)cc23)cc1 (stereo not shown) [Compound 110]	≤ 10	
CN1CC(C(O)c2ccc(-c3c[nH]c4ncc(-c5ccc6c(c5)OCC5CN(C)CCN65)cc34)cc2)C1 (stereo not shown) [Compound 111]	≤ 10	
CN1CCN2c3ccc(-c4cnc5[nH]cc(-c6ccc(C(=O)N7CC(O)C7)cc6)c5n4)cc3OCC2C1 (stereo not shown) [Compound 113]	≤ 10	
CN(C)CCN(C)C(=O)c1ccc(-c2c[nH]c3ncc(-c4ccc5c(c4)OCC4CN(C)CCN54)nc23)cc1 (stereo not shown) [Compound 114]	≤ 10	
CN1CCN2c3ccc(-c4cnc5[nH]nc(-c6ccc(C(=O)N7CC(N(C)C)C7)cc6)c5c4)cc3OCC2C1 (stereo not shown) [Compound 115]	≤ 10	
CN1CCN2c3ccc(-c4cnc5[nH]nc(-c6ccc(C(=O)N7CC(O)C7)cc6)c5c4)cc3OCC2C1 (stereo not shown) [Compound 116]	10 to 100	
CN(C)CCN(C)C(=O)c1ccc(-c2n[nH]c3ncc(-c4ccc5c(c4)OCC4CN(C)CCN54)cc23)cc1 (stereo not shown) [Compound 117]	≤ 10	
CN1CCN2c3ccc(-c4cnc5[nH]nc(-c6ccc(C(=O)N7CC(N(C)C)C7)cc6)c5n4)cc3OCC2C1 (stereo not shown) [Compound 118]	≤ 10	
CN1CCN2c3ccc(-c4cnc5[nH]nc(-c6ccc(C(=O)N7CC(O)C7)cc6)c5n4)cc3OCC2C1 (stereo not shown) [Compound 119]	10 to 100	
CN(C)CCN(C)C(=O)c1ccc(-c2n[nH]c3ncc(-c4ccc5c(c4)OCC4CN(C)CCN54)nc23)cc1 (stereo not shown) [Compound 120]	≤ 10	
CNCc1cc(C)c(-c2cc3c(-c4ccc5c(c4)NCC4CN(C)CCN54)n[nH]c3cc2C#N)c(F)c1 (stereo not shown) [Compound 121]	≤ 10	
CNCc1cc(C)c(-c2cc3c(-c4ccc5c(c4)N(C)CC4CN(C)CCN54)n[nH]c3cc2C#N)c(F)c1 (stereo not shown) [Compound 122]	≤ 10	
CNCc1cc(C)c(-c2cc3c(-c4ccc5c(c4)OCC4CNCCN54)n[nH]c3cc2C#N)c(F)c1 (stereo not shown) [Compound 123]	≤ 10	
CNCc1cc(C)c(-c2cc3c(-c4ccc5c(c4)OCC4CN(C6CC6)CCN54)n[nH]c3cc2C#N)c(F)c1 (stereo not shown) [Compound 125]	≤ 10	
CNCc1cc(C)c(-c2cc3c(-c4ccc5c(c4)OCC4CN(C6COC6)CCN54)n[nH]c3cc2C#N)c(F)c1 (stereo not shown) [Compound 126]	≤ 10	
CNCc1cc(C)c(-c2cc3c(-c4ccc5c(c4)OCC4CN(C6CCN(C)CC6)CCN54)n[nH]c3cc2C#N)c(F)c1 (stereo not shown) [Compound 127]	≤ 10	
CNCc1cc(C)c(-c2cc3c(-c4ccc5c(c4)OCC4CN(CC(F)(F)F)CCN54)n[nH]c3cc2C#N)c(F)c1 (stereo not shown) [Compound 128]	≤ 10	
CNCc1cc(C)c(-c2cc3c(-c4ccc5c(c4)OCC4CN(CCC#N)CCN54)n[nH]c3cc2C#N)c(F)c1 (stereo not shown) [Compound 129]	≤ 10	

More lines, main results first:

IC50 (HPK1) [nM]	Compound	IC50 (hERG potassium channel) [nM]
≤ 10	CNCc1cc(F)c(-c2cc3c(-c4ccc5c(c4)OCC4CN(C)CCN54)n[nH]c3cc2C#N)c(F)c1 (stereo not shown) [Compound 18]	11800
10 to 100	CNCc1cc(C)c(-c2ncc3[nH]nc(-c4ccc5c(c4)OCC4CN(C)CCN54)c3n2)c(F)c1 (stereo not shown) [Compound 80]	
10 to 100	CNCc1cc(F)c(-c2ncc3[nH]nc(-c4ccc5c(c4)OCC4CN(C)CCN54)c3n2)c(F)c1 (stereo not shown) [Compound 81]	
≤ 10	CNCc1cc(C)c(-c2nc3c(-c4ccc5c(c4)OCC4CN(C)CCN54)n[nH]c3cc2C#N)c(F)c1 (stereo not shown) [Compound 83]	
≤ 10	CNCc1cc(F)c(-c2nc3c(-c4ccc5c(c4)OCC4CN(C)CCN54)n[nH]c3cc2C#N)c(F)c1 (stereo not shown) [Compound 84]	
10 to 100	CNCc1cc(C)c(-c2ccc3[nH]nc(-c4ccc5c(c4)OCC4CN(C)CCN54)c3n2)c(F)c1 (stereo not shown) [Compound 86]	
10 to 100	CNCc1cc(F)c(-c2ccc3[nH]nc(-c4ccc5c(c4)OCC4CN(C)CCN54)c3n2)c(F)c1 (stereo not shown) [Compound 87]	
≤ 10	COc1cccc(F)c1-c1cc2c(-c3ccc4c(c3)OCC3CN(C)CCN43)c[nH]c2cn1 (stereo not shown) [Compound 88]	
≤ 10	CNCc1cc(C)c(-c2cc3c(-c4ccc5c(c4)OCC4CN(C)CCN54)c[nH]c3cn2)c(F)c1 (stereo not shown) [Compound 89]	
≤ 10	CNCc1cc(F)c(-c2cc3c(-c4ccc5c(c4)OCC4CN(C)CCN54)c[nH]c3cn2)c(F)c1 (stereo not shown) [Compound 90]	
≤ 10	CNCc1cc(C)c(-c2cc3c(-c4ccc5c(c4)OCC4CN(C)CCN54)c[nH]c3cc2C#N)c(F)c1 (stereo not shown) [Compound 92]	
≤ 10	CNCc1cc(F)c(-c2cc3c(-c4ccc5c(c4)OCC4CN(C)CCN54)c[nH]c3cc2C#N)c(F)c1 (stereo not shown) [Compound 93]	
10 to 100	COc1cccc(F)c1-c1ncc2[nH]cc(-c3ccc4c(c3)OCC3CN(C)CCN43)c2n1 (stereo not shown) [Compound 94]	
≤ 10	CNCc1cc(C)c(-c2ncc3[nH]cc(-c4ccc5c(c4)OCC4CN(C)CCN54)c3n2)c(F)c1 (stereo not shown) [Compound 95]	
10 to 100	CNCc1cc(F)c(-c2ncc3[nH]cc(-c4ccc5c(c4)OCC4CN(C)CCN54)c3n2)c(F)c1 (stereo not shown) [Compound 96]	
10 to 100	COc1cccc(F)c1-c1nc2c(-c3ccc4c(c3)OCC3CN(C)CCN43)c[nH]c2cc1C#N (stereo not shown) [Compound 97]	
≤ 10	CNCc1cc(C)c(-c2nc3c(-c4ccc5c(c4)OCC4CN(C)CCN54)c[nH]c3cc2C#N)c(F)c1 (stereo not shown) [Compound 98]	
≤ 10	CNCc1cc(F)c(-c2nc3c(-c4ccc5c(c4)OCC4CN(C)CCN54)c[nH]c3cc2C#N)c(F)c1 (stereo not shown) [Compound 99]	
≤ 10	COc1cccc(F)c1-c1ccc2[nH]cc(-c3ccc4c(c3)OCC3CN(C)CCN43)c2n1 (stereo not shown) [Compound 100]	
≤ 10	CNCc1cc(C)c(-c2ccc3[nH]cc(-c4ccc5c(c4)OCC4CN(C)CCN54)c3n2)c(F)c1 (stereo not shown) [Compound 101]	
≤ 10	CNCc1cc(F)c(-c2ccc3[nH]cc(-c4ccc5c(c4)OCC4CN(C)CCN54)c3n2)c(F)c1 (stereo not shown) [Compound 102]	
≤ 10	CCN1CCN2c3ccc(-c4n[nH]c5cc(C#N)c(-c6c(C)cc(CNC)cc6F)cc45)cc3OCC2C1 (stereo not shown) [Compound 124]	

Source: US12686689B2, “HPK1 inhibitor, preparation method therefor and use thereof” (WIGEN BIOMEDICINE TECHNOLOGY (SHANGHAI) CO., LTD., priority 2020, dated 2026)
